How the values were obtained:
LPyV VP1 [1] = target: T1, LPyV VP1 (B-lymphotropic polyomavirus, UniProt P04010); test: X-ray crystal structure (soaked crystals), […] Å; type: binding; conditions: 40 mM ligand soak 45 min, 0.1 M sodium acetate pH 4.8, 0.2 M CaCl2; outer-surface sialic acid cleft between two VP1 monomers; also bound on glycan array as lipid-linked probe
T1 construct: VP1 residues 28-301 (27 N-terminal and 66 C-terminal residues truncated), pET15b, E. coli BL21(DE3); His-tag cut with thrombin for crystals leaving GSHM (tag kept for glycan array); unassembled pentamer

LPyV VP1 [2] = target: T1, LPyV VP1; test: X-ray crystal structure (soaked crystals), […] Å; type: binding; conditions: 40 mM ligand soak 10 min, 0.1 M sodium acetate pH 4.8, 0.2 M CaCl2; same cleft as 3SL; also bound on glycan array as lipid-linked probe
[3] = target: the molecule itself; test: crystal structure; unliganded LPyV VP1 and crystals soaked with 3SL or 3SLN; vapor diffusion against isopropanol, 0.1 M sodium acetate pH 4.8, 0.2 M calcium chloride; two VP1 pentamers in the asymmetric unit

T1 sequence (P04010 29-302): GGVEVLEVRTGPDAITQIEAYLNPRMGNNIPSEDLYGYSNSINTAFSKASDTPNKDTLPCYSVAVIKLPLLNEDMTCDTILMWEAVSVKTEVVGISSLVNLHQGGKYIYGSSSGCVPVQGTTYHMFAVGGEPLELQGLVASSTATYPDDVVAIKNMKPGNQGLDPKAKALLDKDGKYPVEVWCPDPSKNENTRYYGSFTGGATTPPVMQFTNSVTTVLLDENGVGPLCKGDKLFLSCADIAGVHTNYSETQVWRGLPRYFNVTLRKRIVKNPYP

Which “X-ray crystal structure (soaked crystals), 1.48 Å” value (LPyV VP1 [1]) does the source give for `CC(=O)N[C@H]1[C@H]([C@H](O)[C@H](O)CO)O[C@@](O[C@H]2[C@@H](O)[C@@H](CO)O[C@@H](O[C@H]3[C@H](O)[C@@H](O)C(O)O[C@@H]3CO)[C@@H]2O)(C(=O)O)C[C@@H]1O` (stereo partly drawn) [3SL, Neu5Ac-α2,3-Gal-β1,4-Glc] here?
Its value is “entry codes 4MBX (unliganded LPyV VP1), 4MBY (complex with 3SL) and 4MBZ (complex with 3SLN)”.

`CC(=O)N[C@H]1[C@H]([C@H](O)[C@H](O)CO)O[C@@](O[C@H]2[C@@H](O)[C@@H](CO)O[C@@H](O[C@H]3[C@H](O)[C@@H](NC(C)=O)C(O)O[C@@H]3CO)[C@@H]2O)(C(=O)O)C[C@@H]1O` (stereo partly drawn) [3SLN, Neu5Ac-α2,3-Gal-β1,4-GlcNAc] was tested. Which “X-ray crystal structure (soaked crystals), 1.75 Å” value (LPyV VP1 [2]) did it give?
The value was 4MBY (complex with 3SL) and 4MBZ (complex with 3SLN).

B1: B-Lymphotropic Polyomavirus (LPyV) VP1 pentamer, amino acids 28-301 (domain or fragment)
chain: GSHMKGGVEVLEVRTGPDAITQIEAYLNPRMGNNIPSEDLYGYSNSINTAFSKASDTPNKDTLPCYSVAVIKLPLLNEDMTCDTILMWEAVSVKTEVVGISSLVNLHQGGKYIYGSSSGCVPVQGTTYHMFAVGGEPLELQGLVASSTATYPDDVVAIKNMKPGNQGLDPKAKALLDKDGKYPVEVWCPDPSKNENTRYYGSFTGGATTPPVMQFTNSVTTVLLDENGVGPLCKGDKLFLSCADIAGVHTNYSETQVWRGLPRYFNVTLRKRIVKNPY
notes: non-native amino acids left at the N-terminus after thrombin cleavage of the His-tag; Major capsid protein VP1 of B-Lymphotropic Polyomavirus, K38 strain, amino acids 28-301 (truncations of 27 and 66 residues at the N- and C-termini); Cannot assemble into capsids because of the truncations; The form used for crystals had the His-tag cleaved; the glycan array used the His-tagged form (no …)
For B1, which “stoichiometry N” value [3] is on record?
The value was 5.
